Consider one compound from patent publication US9284307B2, “Macrocyclic serine protease inhibitors” (Idenix Pharmaceuticals LLC, priority 2009, dated 2016).

What is called pEC50 is the negative decadic logarithm of the EC50, by convention in mol/L.

One test deals with T1, HCV NS3-NS4A protease 1b (Hepatitis C virus genotype 1b, UniProt Q9WMX2).
T1 construct: using 2-3 nM HCV NS3-NS4A protease, which was produced according to the method of Taremi et al; made in house
Put plainly: HCV protease assay (HiLyte Fluor TR/QXL 610 FRET peptide), genotype 1b. Particulars: 2-3 nM protease, 60 min at 30° C., read-out: IC50 Against HS3/4A 1b. The class given is biochemical. The procedure:
(§1) Measurement of the inhibitory effect of compounds on HCV protease activity was performed using the HiLyte Fluor™ TR/QXL™ 610 FRET peptide from AnaSpec, Inc. (San Jose, Calif.) under conditions developed in-house using 2-3 nM HCV NS3-NS4A protease, which was produced according to the method of Taremi et al. (Protein Science, 1998, 7, 2143-2149). The compounds were tested at a variety of concentrations in assay buffer containing a final DMSO concentration of 5%. Reactions were allowed to proceed for 60 min at 30° C. and fluorescence measurements were recorded with a PerkinElmer Victor^3 V 1420 Multilabel Counter. The IC50 values were determined from the percent inhibition versus concentration data using a sigmoidal non-linear regression analysis based on four parameters with XLfit 4.1 software.

The target in a further test is T2, HCV NS3-NS4A protease 2a (Hepatitis C virus genotype 2a, UniProt Q99IB8).
T2 construct: using 2-3 nM HCV NS3-NS4A protease, which was produced according to the method of Taremi et al; made in house
The test can be described thus: HCV protease assay (HiLyte Fluor TR/QXL 610 FRET peptide), genotype 2a. The following applies: 2-3 nM protease, 60 min at 30° C., read-out: IC50 Against HS3/4A 2a. The test is classed as biochemical. The procedure: as §1

The target of another test is T3, HCV NS3-NS4A protease 4a (Hepatitis C virus genotype 4a, UniProt O39929).
T3 construct: using 2-3 nM HCV NS3-NS4A protease, which was produced according to the method of Taremi et al; made in house
The test can be described thus: HCV protease assay (HiLyte Fluor TR/QXL 610 FRET peptide), genotype 4a. The class given is biochemical. The following applies: 2-3 nM protease, 60 min at 30° C., read-out: IC50 Against HS3/4A 4a. How it is done: as §1

Test [1] deals with HCV luciferase-bearing mutant replicon, NS3 D168V, in cured GS4.1 cells. Put plainly: Luciferase replicon transient transfection assay, D168V mutant replicon. The class given is cell-based. How it is done:
The luciferase replicon transient transfection assay measures the ability of a test compound to inhibit the replication of a transiently-transfected HCV luciferase-bearing wild-type or mutant replicon in cured human hepatoma cells (cured GS4.1). The mutant replicons bear a specific single-site mutation in NS3 that is known to confer resistance to protease inhibitors currently in development. The inhibition of HCV replication was measured by quantification of luciferase protein expression. This assay has been validated using a panel of replicons bearing known protease inhibitor resistance mutations and their respective reference compounds. Briefly, subconfluent cured GS4.1 cells in OptiBuffer (ThermoElectron Corp.) were electroporated with 40 μg of wild-type or mutant luciferase-bearing HCV replicon RNA. The cells were then seeded in 96-well opaque white plates at 2.4×10^4 cells/well in 150 μL/well and incubated for 4 hours at 37° C./5% CO2. […] The plates were agitated on a rotating platform at room temperature for 3 minutes and read in a Victor^3V microplate reader (Perkin-Elmer) using a 700 nm cut-off filter with a 1 second read time. EC50 values were calculated from dose response curves from the resulting best-fit equations determined by Microsoft Excel and XLfit 4.1 software.
A general note: A replicon is a self-replicating genome or part of one, used to study replication in cells.

pEC50, pIC50: −log10 of the molar value. A value given as a limit tells only on which side of the number the result lay.

T1 sequence (Q9WMX2 1027-1208): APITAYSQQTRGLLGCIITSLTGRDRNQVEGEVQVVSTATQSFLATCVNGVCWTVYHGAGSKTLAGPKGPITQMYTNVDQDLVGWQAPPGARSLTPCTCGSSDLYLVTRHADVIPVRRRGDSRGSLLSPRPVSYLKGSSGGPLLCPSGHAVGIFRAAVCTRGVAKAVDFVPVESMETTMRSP
T2 sequence (Q99IB8 1031-1212): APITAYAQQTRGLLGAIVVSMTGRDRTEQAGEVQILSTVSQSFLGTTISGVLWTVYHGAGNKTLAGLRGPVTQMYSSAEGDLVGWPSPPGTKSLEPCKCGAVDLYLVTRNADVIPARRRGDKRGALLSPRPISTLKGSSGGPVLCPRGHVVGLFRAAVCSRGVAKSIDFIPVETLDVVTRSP
T3 sequence (O39929 1027-1208): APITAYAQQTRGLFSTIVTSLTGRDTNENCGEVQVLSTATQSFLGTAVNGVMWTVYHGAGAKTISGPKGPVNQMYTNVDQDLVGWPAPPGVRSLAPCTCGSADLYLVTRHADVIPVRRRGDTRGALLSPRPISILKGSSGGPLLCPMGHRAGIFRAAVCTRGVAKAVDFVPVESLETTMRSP

For `COc1ccc2c(O[C@H]3CC[C@H]4C(=O)N(C)CCCC/C=C\[C@@H]5C[C@@]5(C(=O)NS(=O)(=O)C5(C)CC5)NC(=O)[C@@H]4C3)cc(-c3nc(C(F)(F)F)cs3)nc2c1C` [Compound 51], the pIC50 at HCV NS3-NS4A protease 1b, on HCV NS3-NS4A protease 2a and on HCV NS3-NS4A protease 4a was > 6.00 throughout. The “Fold Change, D168V replicon” value in test [1] (EC50 fold change, D168V replicon) is reported as 1000-3000. The pEC50 in test [1] (Hepatitis C virus, 96 h, read-out: EC50(nm), D168V replicon) is 5.56 to 5.70.
